From patent publication US20040157891A1, “Inhibitor of cox” (FUJISAWA PHARMACEUTICAL CO., LTD., priority 2003, published 2004)

Key:
arthritic rats = test: Analgesic activity: effect on adjuvant arthritis in rats (Randall-Selitto); type: in vivo, Lewis rats; conditions: single dose 3.2 mg/kg; mechanical pain threshold of left hind paw 2 hrs after administration; ratio to non-treated rats
COX-II = target: T1, COX-II (Homo sapiens, UniProt P35354); test: Whole blood assay for COX-II (LPS-induced PGE2 production); type: cell-based; conditions: lipopolysaccharide 24 hrs at 37° C.
T1 construct: incubation of the blood with 10 μL of 5 mg/mL lipopolysaccharide for 24 hrs at 37° C. for induction of COX-II; from tissue; host or cells: heparinized fresh human whole blood from volunteers, LPS-stimulated for 24 h; PGE2 read-out
T1 sequence (P35354 18-604): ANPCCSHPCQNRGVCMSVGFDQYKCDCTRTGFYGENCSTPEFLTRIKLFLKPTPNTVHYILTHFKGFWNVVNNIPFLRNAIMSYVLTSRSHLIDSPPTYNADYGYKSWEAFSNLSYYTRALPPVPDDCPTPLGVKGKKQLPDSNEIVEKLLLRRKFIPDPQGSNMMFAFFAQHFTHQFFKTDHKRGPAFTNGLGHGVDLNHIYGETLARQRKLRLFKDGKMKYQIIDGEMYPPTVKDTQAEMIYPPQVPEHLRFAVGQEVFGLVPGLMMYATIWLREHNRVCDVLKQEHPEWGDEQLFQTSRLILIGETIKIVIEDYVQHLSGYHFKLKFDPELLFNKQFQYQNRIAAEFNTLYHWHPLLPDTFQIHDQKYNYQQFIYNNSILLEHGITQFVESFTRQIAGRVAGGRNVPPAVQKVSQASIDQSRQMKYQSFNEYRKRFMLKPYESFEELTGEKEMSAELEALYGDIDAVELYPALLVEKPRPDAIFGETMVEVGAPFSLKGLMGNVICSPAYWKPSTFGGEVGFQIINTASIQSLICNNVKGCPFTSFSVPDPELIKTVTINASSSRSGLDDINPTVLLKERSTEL
Procedure: Whole Blood Assay for COX-II
Fresh blood was collected in heparinized tubes by syringe from volunteers with consent. The subjects had no apparent inflammatory conditions and had not taken any medication for at least 7 days prior to blood collection.
500 μL aliquots of human whole blood were incubated with either 2 μL dimethyl sulfoxide vehicle or 2 μL of a test compound at final concentrations for 15 min at 37° C. This was followed by incubation of the blood with 10 μL of 5 mg/mL lipopolysaccharide for 24 hrs at 37° C. for induction of COX-II. Appropriate PBS treatments (no LPS) were used as blanks. At the end of the incubation, the blood was centrifuged at 6000×g for 5 min at 4° C. to obtain plasma. A 100 μL aliquot of plasma was mixed with 400 μL methanol for protein precipitation. The supernatant was obtained by centrifuging at 6000×g for 5 min at 4° C. and was assayed for prostaglandin E2 (PGE2) using a radioimmunoassay kit after conversion of PGE2 to its methyl oximate derivative according to the manufacturer's procedure.
For a test compound, the results were expressed as percent inhibition of PGE2 production relative to control incubations containing dimethyl sulfoxide vehicle. The data were analyzed by that a test compound at the indicated concentrations was changed log value and was applied simple linear regression. IC50 value was calculated by least squares method.

COX-I = target: T2, COX-I (Homo sapiens, UniProt P23219); test: Whole blood assay for COX-I (TXB2 production); type: cell-based; conditions: 1 hr at 37° C.
T2 construct: Fresh blood was collected by syringe without anticoagulants from volunteers with consent; from tissue; host or cells: fresh human whole blood from volunteers, left to clot; TXB2 read-out
T2 sequence (P23219 24-599): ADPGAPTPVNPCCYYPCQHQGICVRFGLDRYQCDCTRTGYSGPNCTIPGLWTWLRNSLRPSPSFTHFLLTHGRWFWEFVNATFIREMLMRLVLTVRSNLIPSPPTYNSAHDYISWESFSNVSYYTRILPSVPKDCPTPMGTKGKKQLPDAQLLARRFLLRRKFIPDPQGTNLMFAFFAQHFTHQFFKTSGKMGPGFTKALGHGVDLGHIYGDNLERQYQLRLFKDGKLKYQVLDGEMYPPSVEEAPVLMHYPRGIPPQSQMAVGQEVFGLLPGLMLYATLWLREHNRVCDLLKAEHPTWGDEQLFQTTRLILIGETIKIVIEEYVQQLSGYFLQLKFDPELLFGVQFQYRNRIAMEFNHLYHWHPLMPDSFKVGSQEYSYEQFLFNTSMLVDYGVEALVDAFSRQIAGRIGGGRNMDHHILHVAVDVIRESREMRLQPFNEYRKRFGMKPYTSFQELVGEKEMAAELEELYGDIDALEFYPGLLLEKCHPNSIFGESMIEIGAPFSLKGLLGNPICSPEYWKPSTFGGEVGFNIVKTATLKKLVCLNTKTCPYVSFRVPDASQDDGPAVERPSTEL
Procedure: Whole blood assay for COX-I
Fresh blood was collected by syringe without anticoagulants from volunteers with consent. The subjects had no apparent inflammatory conditions and had not taken any medication for at least 7 days prior to blood collection.
500 μL Aliquots of human whole blood were immediately incubated with 2 μL of either dimethyl sulfoxide vehicle or a test compound at final concentrations for 1 hr at 37° C. to allow the blood to clot. Appropriate treatments (no incubation) were used as blanks. At the end of the incubation, 5 μL of 250 mM Indomethacin was added to stop the reaction. The blood was centrifuged at 6000×g for 5 min at 4° C. to obtain serum. A 100 μL aliquot of serum was mixed with 400 μL methanol for protein precipitation. The supernatant was obtained by centrifuging at 6000×g for 5 min at 4° C. and was assayed for TXB2 using an enzyme immunoassay kit according to the manufacturer's procedure. For a test compound, the results were expressed as percent inhibition of thromboxane B2(TXB2) production relative to control incubations containing dimethyl sulfoxide vehicle.
The data were analyzed by that a test compound at the indicated concentrations was changed log value and was applied simple linear regression. IC50 value was calculated by least squares method.

SMILES | melting point | IC50 (COX-II) | IC50 (COX-I) | The coefficient of analgesic (arthritic rats)
CCOC(=O)c1nc(-c2ccc(OC)cc2)c(-c2ccc(OC)cc2)o1 [Example 1-2, Ethyl 4,5-bis(4-methoxyphenyl)-1,3-oxazole-2-carboxylate] | 95 to 97 °C | – | – | –
COc1ccc(-c2nc(C(N)=O)oc2-c2ccc(OC)cc2)cc1 [Example 2, 4,5-Bis(4-methoxyphenyl)-1,3-oxazole-2-carboxamide] | 133 to 135 °C | – | – | –
COc1ccc(-c2nc(C(C)=O)oc2-c2ccc(OC)cc2)cc1 [Example 5, 1-[4,5-Bis(4-methoxyphenyl)-1,3-oxazol-2-yl]ethanone] | 139 to 140 °C | – | – | –
COc1ccc(-c2nc(C(=O)c3ccccc3)oc2-c2ccc(OC)cc2)cc1 [Example 6, [4,5-Bis(4-methoxyphenyl)-1,3-oxazol-2-yl](phenyl)methanone] | 164 to 166 °C | – | – | –
COc1ccc(-c2oc(CO)nc2-c2ccc(C#N)cc2)cc1 [Example 79, 4-[2-(Hydroxymethyl)-5-(4-methoxyphenyl)-1,3-oxazol-4-yl]benzonitrile] | 151 to 153 °C | – | – | –
COCc1nc(-c2ccc(OC)cc2)c(-c2ccc(C#N)cc2)o1 [Example 80-3, 4-[2-(Methoxymethyl)-4-(4-methoxyphenyl)-1,3-oxazol-5-yl]benzonitrile] | 85 to 86 °C | – | – | –
COc1ccc(-c2nc(C3CC3)oc2-c2ccc(OCCNS(C)(=O)=O)cc2)cn1 [Example 122, N-(2-{4-[2-Cyclopropyl-4-(6-methoxy-3-pyridinyl)-1,3-oxazol-5-yl]phenoxy}ethyl)methanesulfonamide] | – | > 100 nM | < 10 nM | >1.5

Further lines, with some results ahead:

melting point | IC50 (COX-II) | IC50 (COX-I) | SMILES | The coefficient of analgesic (arthritic rats)
114 to 116 °C | > 100 nM | < 10 nM | COc1ccc(-c2nc(C(F)F)oc2-c2ccc(OCCO)cc2)cc1 [Example 12, 2-{4-[2-(Difluoromethyl)-4-(4-methoxyphenyl)-1,3-oxazol-5-yl]phenoxy}ethanol] | >1.5
126 to 128 °C | > 100 nM | < 10 nM | COc1ccc(-c2nc(C(F)F)oc2-c2ccc(OCCO)cc2)cn1 [Example 33, 2-{4-[2-(Difluoromethyl)-4-(6-methoxy-3-pyridinyl)-1,3-oxazol-5-yl]phenoxy}ethanol] | >1.5
– | > 100 nM | < 10 nM | COc1ccc(-c2nc(C(F)(F)F)oc2-c2ccc(OCCNS(C)(=O)=O)cc2)cn1 [Example 54, N-(2-{4-[4-(6-Methoxy-3-pyridinyl)-2-(trifluoromethyl)-1,3-oxazol-5-yl]phenoxy}ethyl)methanesulfonamide] | >1.5
– | > 100 nM | < 10 nM | COc1ccc(-c2nc(C(F)(F)F)oc2-c2ccc(OCCNC(N)=O)cc2)cn1 [Example 55, N-(2-{4-[4-(6-Methoxy-3-pyridinyl)-2-(trifluoromethyl)-1,3-oxazol-5-yl]phenoxy}ethyl)urea] | >1.5
156 to 158 °C | – | – | COc1ccc(-c2oc(C(=O)c3ccccc3)nc2-c2ccc(OC)nc2)cc1 [Example 73, [5-(4-Methoxyphenyl)-4-(6-methoxy-3-pyridinyl)-1,3-oxazol-2-yl](phenyl)methanone] | –
87 to 89 °C | – | – | COc1ccc(-c2oc(C(F)F)nc2-c2ccc(OC)nc2)cc1 [Example 77, 5-[2-(Difluoromethyl)-5-(4-methoxyphenyl)-1,3-oxazol-4-yl]-2-methoxypyridine] | –
– | > 100 nM | < 10 nM | COc1ccc(-c2nc(C3CC3)oc2-c2ccc(OCCO)cc2)cn1 [Example 118, 2-{4-[2-Cyclopropyl-4-(6-methoxy-3-pyridinyl)-1,3-oxazol-5-yl]phenoxy}ethanol] | >1.5
